Entries after “also recorded” stand apart in the source; their conditions may differ.
Key:
[1] = system: alkaline phosphatase (AP) activity in ECC-1 cells; test: Alkaline phosphatase (AP) assay in ECC-1 cells, agonist mode (without E2); assay type: cell-based, human; conditions: without E2, 3 days
Text: FIG. 2. Alkaline phosphatase (AP) activity in ECC-1 cells correlates with the uterine wet weight of ovariectomized rats, as reported previously in Scafonas, et al. (*; Scafonas et al. “Agonist-like SERM effects on ER alpha-mediated repression of MMPI promoter activity predict in vivo effects on bone and uterus. J Steroid Biochem Mol. Biol. 2008 110(3-5):197-206) and Labrie, et al. (†; Labrie et al. “The combination of a novel selective estrogen receptor modulator with an estrogen protects the mammary gland and uterus in a rodent model: the future of postmenopausal women's health?” Endocrinology. 2003 144(11):4700-6). ECC-1 cells were treated with 500 pM 17β-estradiol (E2) or 1-5 nM anti-estrogens in hormone-depleted medium for 3 days. […] AP activity was measured by incubating a chromogenic AP substrate, p-nitrophenyl phosphate, at 40° C. for 40 minutes followed by measuring the absorbance at 405 nm. […]
FIG. 3. […] ECC-1 cells were treated with 100 nM anti-estrogens and AP activity was measured as described in FIG. 2. […] Note that OP-1038 was statistically different from Aragon Compound 28 (WO2011/156518), EM-343 and Gauthier compound Ia (p≦0.01 (exact p values stated in graph), calculated using Student's t-test).
Method for performing the alkaline phosphatase (AP) assay. […] Absorbance was read at 405 nm using a plate spectophotometer. […]

[2] = system: E2-stimulated estrogen response element (ERE)-regulated reporter gene activity; test: ERE-tk109-Luc reporter gene assay in MCF-7 cells; assay type: cell-based, human; conditions: 100 pM E2, 18-22 hours
Description: FIG. 10. […] A) OP-1074 had similar potency to model anti-estrogens in the ERE reporter gene assay. MCF-7 cells were transiently transfected with ERE-tk109-Luc and treated with anti-estrogens in hormone-depleted medium in the presence of 100 pM E2 for 22 hours. Results were from a single representative experiment and reported as the mean percent induction relative to E2 from triplicate treatments, with error bars representing SEM. […] Results were from a single representative experiment and reported as the mean percent induction relative to E2 from triplicate treatments, with error bars representing SEM. IC50's were calculated using the least squares fit method.
Compounds of invention are tested for their inhibitory activity of estrogen according to the assay methods described in Hodges-Gallagher, L., Valentine, C. V., El Bader, S. and Kushner, P. J. (2007) “Histone Deacetylase Inhibitors Enhance the Efficacy of Hormonal Therapy Agents on Breast Cancer Cells and Blocks Anti-estrogen-Driven Uterine Cell Proliferation” Breast Cancer Res Treat, November; 105(3):297-309. Specifically, an estrogen-responsive reporter gene (ERE-tk109-Luc) was transiently transfected into MCF-7 cells and treated with anti-estrogens in triplicate in the presence of 100 pM 17β-estradiol (E2) for 18-22 hours. Luciferase activity was normalized to activity of E2 alone and IC50's were calculated using the least squares fit method. This method is also described in legend for FIG. 10.

[3] = target: T1, estrogen receptor alpha (ERα) (Homo sapiens, UniProt P03372); test: ERα expression by immunoblot after anti-estrogen treatment; assay type: cell-based; conditions: 100 nM anti-estrogen, 22-24 hours, serum-free medium; MCF-7 breast cells and ECC-1 endometrial cells
T1 construct: endogenous in cells
T1 sequence (P03372 1-595): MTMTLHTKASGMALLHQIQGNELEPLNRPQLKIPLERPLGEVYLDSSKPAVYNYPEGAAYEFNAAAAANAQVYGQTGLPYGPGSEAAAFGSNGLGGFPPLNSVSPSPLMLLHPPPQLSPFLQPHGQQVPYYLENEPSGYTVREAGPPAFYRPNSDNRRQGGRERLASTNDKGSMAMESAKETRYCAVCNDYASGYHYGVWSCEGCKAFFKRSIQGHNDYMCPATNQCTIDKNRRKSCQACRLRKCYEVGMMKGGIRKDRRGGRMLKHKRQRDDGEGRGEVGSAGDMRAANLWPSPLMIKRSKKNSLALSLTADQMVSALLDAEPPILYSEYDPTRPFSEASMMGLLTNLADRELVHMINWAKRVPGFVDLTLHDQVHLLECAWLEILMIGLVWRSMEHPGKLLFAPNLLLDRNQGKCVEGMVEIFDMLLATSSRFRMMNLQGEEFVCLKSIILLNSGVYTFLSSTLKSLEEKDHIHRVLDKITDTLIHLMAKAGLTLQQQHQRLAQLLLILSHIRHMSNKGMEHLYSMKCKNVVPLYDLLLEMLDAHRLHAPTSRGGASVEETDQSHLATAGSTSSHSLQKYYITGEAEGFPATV
Description: FIG. 12. […] A) ERα levels in breast cells after treatment with OP-1074 compared to treatment with model anti-estrogens. MCF-7 cells were treated with 100 nM anti-estrogen for 24 hours in serum-free medium and protein extracts immunoblotted with an antibody to ERα (D12, Santa Cruz Biotechnology, Santa Cruz, Calif.). Image is from a single representative experiment and number on top denotes the mean percent ERα expression relative to vehicle from quadruplicate treatments. B) OP-1038 induces degradation of ERα in both MCF-7 breast cells and ECC-1 endometrial cells.
ERα expression was detected in MCF-7 cell lysates treated with 100 nM anti-estrogens in serum-free medium for 22-24 hours and immunoblotted with an antibody specific to ERα as described in the legend to, and depicted in FIG. 12.

| Compound | Estrogenic activity: AP activity, percent induction relative to E2 [1] | Antagonism of E2-stimulated ERE-regulated reporter gene activity [2] | Degradation of ERα [3] |
| --- | --- | --- | --- |
| CC1=C(c2ccc(O)cc2)C(c2ccc(OCCN3CC[C@@H](C)C3)cc2)Oc2cc(O)ccc21 (stereo partly drawn) [OP-1038, 3-(4-hydroxyphenyl)-4-methyl-2-(4-{2-[(3R)-3-methylpyrrolidin-1-yl]ethoxy}phenyl)-2H-chromen-7-ol] | lacks estrogenic activity; also recorded: less estrogenic than Aragon Compound 28 | improved potency; also recorded: potent antagonists | comparable to fulvestrant; also recorded: induce degradation |
| CC1=C(c2ccc(O)cc2)[C@H](c2ccc(OCCN3CC[C@@H](C)C3)cc2)Oc2cc(O)ccc21 [OP-1074, (2S)-3-(4-hydroxyphenyl)-4-methyl-2-(4-{2-[(3R)-3-methylpyrrolidin-1-yl]ethoxy}phenyl)-2H-chromen-7-ol] | essentially no estrogenic activity; also recorded: lack estrogenic activity; also recorded: did not stimulate AP activity | improved potency; also recorded: potent antagonists | comparable to fulvestrant; also recorded: induce degradation |

— patent publication US9018244B2, “Benzopyran compounds, compositions and uses thereof” (Olema Pharmaceuticals, Inc., priority 2011, dated 2015)
